Reference: patent US20140073639A1 (priority 2012, published 2014)
Several values for one entry are separate records, joined by “and”; a condition that tells them apart may be missing. Equal values may be shown once. Read-outs that look alike come from different tables or passages of the source.

Assays:
S. aureus RN4220 [1] = assay: microbe, parasite or virus in culture; assay type: cell-based; settings: Staphylococcus aureus, 37° C., 24 hours
B. anthracis ΔSterne = assay type: cell-based
S. aureus strain RN4220 = assay type: cell-based, Staphylococcus aureus
[2] = test system: Gram-positive organisms that also encode 2-epimerases; assay type: cell-based
B. anthracis Sterne = assay type: in vivo, C57BL/6 mice
S. aureus RN4220 [3] = assay type: cell-based

SMILES: O=C(O)C(Cc1ccccc1)N1C(=O)/C(=C\c2ccc(-c3ccc(Br)cc3)s2)NC1=S (stereo not shown) [Epimerox, 2-{4-[5-(4-bromophenyl)-thiophen-2-ylmethylene]-5-oxo-2-thioxo-imidazolidin-1-yl}-3-phenyl-propionic acid]
- MIC (S. aureus RN4220 [1]): 8 µg/mL and 16 µM
- concentrations that effectively blocked growth (B. anthracis ΔSterne): above 3 μM
- Epimerox concentrations at which strain did not grow (S. aureus strain RN4220): above 7.5 μm1^−1
- growth of S. aureus (S. aureus strain RN4220): grew very poorly
- growth of many other Gram-positive organisms [2]: inhibited the growth
- B. anthracis in the major organs (B. anthracis Sterne; after 2 days): not observed
- B. anthracis in the major organs (B. anthracis Sterne; at 20 hours): detected
- animals survived 14 days (B. anthracis Sterne; mouse, in vivo): 100% and 66%
- MIC plateau, serial passage (S. aureus RN4220 [3]): 12 μg m1^−1
- starting MIC, serial passage (S. aureus RN4220 [3]): 5.0 μg m1^−1
